Source: PubChem BioAssay (NCI)
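How tested: cells in 96-well plates exposed to compound for 48 hours at five concentrations. TGI is the concentration that stops growth completely.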

Columns and labels:
Experiment in all cases: growth of human tumour cells (NCI), 48 h
786-0 renal = test system: 786-0 renal
A549 NSCLC = test system: A549 NSCLC
ACHN renal = test system: ACHN renal
HCC-2998 colon = test system: HCC-2998 colon
HCT-116 colon = test system: HCT-116 colon
HCT-15 colon = test system: HCT-15 colon
IGROV1 ovarian = test system: IGROV1 ovarian
KM12 colon = test system: KM12 colon
MCF7 breast = test system: MCF7 breast
MDA-N = test system: MDA-N
NCI-H460 lung = test system: NCI-H460 lung
NCI/ADR-RES ovarian = test system: NCI/ADR-RES ovarian
OVCAR-3 ovarian = test system: OVCAR-3 ovarian
SK-OV-3 ovarian = test system: SK-OV-3 ovarian
SN12C renal = test system: SN12C renal
SNB-19 CNS = test system: SNB-19 CNS
SW-620 colon = test system: SW-620 colon
T-47D breast = test system: T-47D breast
UO-31 renal = test system: UO-31 renal

| Compound | TGI (786-0 renal) [µM] | TGI (A549 NSCLC) [µM] | TGI (ACHN renal) [µM] | TGI (HCC-2998 colon) [µM] | TGI (HCT-116 colon) [µM] | TGI (HCT-15 colon) [µM] | TGI (IGROV1 ovarian) [µM] | TGI (KM12 colon) [µM] | TGI (MCF7 breast) [µM] | TGI (MDA-N) [µM] | TGI (NCI-H460 lung) [µM] | TGI (NCI/ADR-RES ovarian) [µM] | TGI (OVCAR-3 ovarian) [µM] | TGI (SK-OV-3 ovarian) [µM] | TGI (SN12C renal) [µM] | TGI (SNB-19 CNS) [µM] | TGI (SW-620 colon) [µM] | TGI (T-47D breast) [µM] | TGI (UO-31 renal) [µM] |
| --- | --- | --- | --- | --- | --- | --- | --- | --- | --- | --- | --- | --- | --- | --- | --- | --- | --- | --- | --- |
| CC1=C2C(=O)OCC23C=COC3(C)O1 (stereo unspecified) | > 100 | > 100 | > 100 | > 100 | > 100 | > 100 | > 100 | 95.9 | > 100 | > 100 | > 100 | > 100 | 97.1 | > 100 | > 100 | > 100 | > 100 | > 100 | > 100 |
| Nc1cc2c3c(cccc3c1)C(=O)N(c1ccc(OCCN3CCCCC3)cc1)C2=O | 43.3 | 28.2 | 29.4 | 34 | 51.7 | 25.4 | 34.4 | 41.3 | 36.3 | 41.2 |  | 40.9 | 30.7 | 31.7 | > 54.3 | 32.4 | 48.5 | 46.6 | 24.1 |
| O=S(=O)(N=S(c1ccc(Cl)cc1)c1ccc(Cl)cc1)c1ccccc1 | > 100 | > 100 | > 100 | > 100 | > 100 | > 100 | > 100 | > 100 | > 100 | > 100 | > 100 | > 100 |  | > 100 | > 100 | > 100 | > 100 | > 100 | > 100 |
| O=CN1CCN(C(=O)c2cc(Cl)cc(Cl)c2)C1=S | 15.7 | 39.8 | 31.7 | 31.9 | 32.7 | 35.2 | 34.7 | 29.8 | 20.8 | 35.4 | 51.2 | 80.7 | 27.9 | 32.4 | 31 | 35 | 49.3 | 36.7 |  |
| COC(=O)C1=NN2c3ccccc3C(=O)OCCC2(C)C1 (stereo unspecified) | > 100 | > 100 | > 100 | > 100 | > 100 | > 100 | > 100 | > 100 | > 100 | > 100 | > 100 | > 100 | > 100 | > 100 | > 100 |  | > 100 | > 100 | > 100 |
| O=C1C2=Cc3ccccc3OC2(O)Oc2cc(O)ccc21 (stereo unspecified) | > 100 | > 100 | > 100 | > 100 | > 100 | > 100 | > 100 | > 100 | > 100 | > 100 |  | > 100 | > 100 | > 100 | > 100 |  | > 100 | > 100 |  |
| CC1=NN(C(=O)CC(=O)Nc2ccccc2Cl)C(=O)C1N=Nc1ccc(C(=O)O)cc1 (stereo unspecified) | > 100 | > 100 | > 100 | > 100 | > 100 | > 100 | > 100 | > 100 | > 100 | > 100 | > 100 | > 100 | > 100 |  | > 100 | > 100 | > 100 | > 100 | > 100 |
| CCCCCCCCCCCCn1c(=O)cc(NCCCC)c2cc3c(NCCCC)cc(=O)n(CCCCCCCCCCCC)c3nc21 | > 100 | > 100 | > 100 | > 100 | > 100 | > 100 |  | > 100 | > 100 | > 100 | > 100 | > 100 | > 100 | > 100 | > 100 | > 100 |  | > 100 | > 100 |
| N#CC1=C(S)N(C2OC(CO)C(O)C(O)C2O)C(c2ccccc2)=CC1c1ccccc1 (stereo unspecified) | > 100 | > 100 | > 100 | 96.4 | > 100 | > 100 | > 100 | > 100 | > 100 | > 100 | > 100 | > 100 | 98.5 |  | > 100 | > 100 | > 100 | 96.7 | > 100 |
| COC1=NC(NC2OCC(O)C(O)C2O)=C(NC(C)=O)CN1C (stereo unspecified) | > 100 | > 100 | > 100 | > 100 | > 100 | > 100 |  | > 100 | > 100 | > 100 | > 100 | > 100 | > 100 | > 100 |  | > 100 | > 100 | > 100 | > 100 |
| O=C1c2cccnc2S(=O)N1Cc1ccccc1 (stereo unspecified) | > 100 | > 100 | > 100 | > 100 | > 100 | > 100 | > 100 | > 100 | > 100 | > 100 | > 100 | > 100 |  | > 100 | > 100 | > 100 | > 100 | > 100 | > 100 |
| CCCCCCCC/C=C\CCCCCCC(F)C(=O)O (stereo unspecified) | > 12.5 | > 12.5 | > 12.5 | > 12.5 | > 12.5 | > 12.5 | > 12.5 | > 12.5 | > 12.5 | > 12.5 |  | > 12.5 | > 12.5 | > 12.5 | > 12.5 | > 12.5 | > 12.5 | > 12.5 | > 12.5 |
| Cc1cn(C2CC(O)C(Cn3cc(Cn4ncc(=O)[nH]c4=O)nn3)O2)c(=O)[nH]c1=O (stereo unspecified) | > 100 | > 100 | > 100 | > 100 | > 100 | > 100 | > 100 | > 100 | > 100 | > 100 |  | > 100 | > 100 | > 100 | > 100 | > 100 | > 100 | > 100 | > 100 |
